Assay results reported in the NIST ThermoML archive (doi:10.1021/je800046k).
Numbers after ± are expanded uncertainties.

Experiment: xn = mol fraction of the nth substance listed
Conditions: for surface tension liquid-gas: Pendant drop shape; for mass density: 101 kPa, Liquid

CC(=O)OCC(C)C [2-methylpropyl ethanoate] + Cc1ccc(C)c(C)c1
surface tension liquid-gas (298.15 K, x1 = 0.0494): 28.85 ± 0.33 mN/m | surface tension liquid-gas (298.15 K, x1 = 0.0992): 28.38 ± 0.32 mN/m | surface tension liquid-gas (298.15 K, x1 = 0.1493): 27.89 ± 0.32 mN/m | surface tension liquid-gas (298.15 K, x1 = 0.2002): 27.4 ± 0.32 mN/m | surface tension liquid-gas (298.15 K, x1 = 0.2498): 26.98 ± 0.32 mN/m | surface tension liquid-gas (298.15 K, x1 = 0.2989): 26.61 ± 0.32 mN/m | surface tension liquid-gas (298.15 K, x1 = 0.3495): 26.25 ± 0.32 mN/m | surface tension liquid-gas (298.15 K, x1 = 0.3997): 25.92 ± 0.32 mN/m | surface tension liquid-gas (298.15 K, x1 = 0.4505): 25.59 ± 0.32 mN/m | surface tension liquid-gas (298.15 K, x1 = 0.4991): 25.3 ± 0.33 mN/m | surface tension liquid-gas (298.15 K, x1 = 0.5504): 25.03 ± 0.33 mN/m | surface tension liquid-gas (298.15 K, x1 = 0.6): 24.78 ± 0.33 mN/m | surface tension liquid-gas (298.15 K, x1 = 0.6496): 24.54 ± 0.33 mN/m | surface tension liquid-gas (298.15 K, x1 = 0.7006): 24.32 ± 0.33 mN/m | surface tension liquid-gas (298.15 K, x1 = 0.75): 24.13 ± 0.33 mN/m | surface tension liquid-gas (298.15 K, x1 = 0.8002): 23.91 ± 0.34 mN/m | surface tension liquid-gas (298.15 K, x1 = 0.8499): 23.74 ± 0.34 mN/m | surface tension liquid-gas (298.15 K, x1 = 0.9006): 23.55 ± 0.34 mN/m | surface tension liquid-gas (298.15 K, x1 = 0.9477): 23.36 ± 0.34 mN/m | surface tension liquid-gas (298.15 K, x1 = 1): 23.15 ± 0.35 mN/m | mass density (298.15 K, x1 = 0.0494): 871.36 ± 0.56 kg/m3 | mass density (298.15 K, x1 = 0.0992): 871.02 ± 0.58 kg/m3 | mass density (298.15 K, x1 = 0.1493): 870.68 ± 0.61 kg/m3 | mass density (298.15 K, x1 = 0.2002): 870.35 ± 0.63 kg/m3 | mass density (298.15 K, x1 = 0.2498): 870.03 ± 0.66 kg/m3 | mass density (298.15 K, x1 = 0.2989): 869.71 ± 0.68 kg/m3 | mass density (298.15 K, x1 = 0.3495): 869.39 ± 0.71 kg/m3 | mass density (298.15 K, x1 = 0.3997): 869.08 ± 0.74 kg/m3 | mass density (298.15 K, x1 = 0.4505): 868.77 ± 0.77 kg/m3 | mass density (298.15 K, x1 = 0.4991): 868.48 ± 0.81 kg/m3 | mass density (298.15 K, x1 = 0.5504): 868.19 ± 0.84 kg/m3 | mass density (298.15 K, x1 = 0.6): 867.92 ± 0.88 kg/m3 | mass density (298.15 K, x1 = 0.6496): 867.65 ± 0.91 kg/m3 | mass density (298.15 K, x1 = 0.7006): 867.37 ± 0.95 kg/m3 | mass density (298.15 K, x1 = 0.75): 867.13 ± 0.99 kg/m3 | mass density (298.15 K, x1 = 0.8002): 866.88 ± 1 kg/m3 | mass density (298.15 K, x1 = 0.8499): 866.67 ± 1.1 kg/m3 | mass density (298.15 K, x1 = 0.9006): 866.45 ± 1.1 kg/m3 | mass density (298.15 K, x1 = 0.9477): 866.27 ± 1.2 kg/m3 | mass density (298.15 K, x1 = 1): 866.06 ± 1.2 kg/m3 | surface tension liquid-gas (308.15 K, x1 = 0.0495): 27.75 ± 0.32 mN/m | surface tension liquid-gas (308.15 K, x1 = 0.0992): 27.26 ± 0.31 mN/m | surface tension liquid-gas (308.15 K, x1 = 0.149): 26.78 ± 0.31 mN/m | surface tension liquid-gas (308.15 K, x1 = 0.1998): 26.31 ± 0.31 mN/m | surface tension liquid-gas (308.15 K, x1 = 0.25): 25.89 ± 0.31 mN/m | surface tension liquid-gas (308.15 K, x1 = 0.2995): 25.52 ± 0.31 mN/m | surface tension liquid-gas (308.15 K, x1 = 0.3497): 25.17 ± 0.31 mN/m | surface tension liquid-gas (308.15 K, x1 = 0.4004): 24.83 ± 0.31 mN/m | surface tension liquid-gas (308.15 K, x1 = 0.4501): 24.52 ± 0.31 mN/m | surface tension liquid-gas (308.15 K, x1 = 0.4995): 24.21 ± 0.31 mN/m | surface tension liquid-gas (308.15 K, x1 = 0.5505): 23.94 ± 0.32 mN/m | surface tension liquid-gas (308.15 K, x1 = 0.5994): 23.69 ± 0.32 mN/m | surface tension liquid-gas (308.15 K, x1 = 0.65): 23.48 ± 0.32 mN/m | surface tension liquid-gas (308.15 K, x1 = 0.6987): 23.25 ± 0.32 mN/m | surface tension liquid-gas (308.15 K, x1 = 0.7505): 23.04 ± 0.32 mN/m | surface tension liquid-gas (308.15 K, x1 = 0.7986): 22.82 ± 0.32 mN/m | surface tension liquid-gas (308.15 K, x1 = 0.8497): 22.67 ± 0.33 mN/m | surface tension liquid-gas (308.15 K, x1 = 0.8999): 22.48 ± 0.33 mN/m | surface tension liquid-gas (308.15 K, x1 = 0.9491): 22.32 ± 0.33 mN/m | surface tension liquid-gas (308.15 K, x1 = 1): 22.16 ± 0.33 mN/m | mass density (308.15 K, x1 = 0.0495): 863.22 ± 0.58 kg/m3 | mass density (308.15 K, x1 = 0.0992): 862.76 ± 0.6 kg/m3 | mass density (308.15 K, x1 = 0.149): 862.3 ± 0.62 kg/m3 | mass density (308.15 K, x1 = 0.1998): 861.84 ± 0.64 kg/m3 | mass density (308.15 K, x1 = 0.25): 861.39 ± 0.67 kg/m3 | mass density (308.15 K, x1 = 0.2995): 860.95 ± 0.7 kg/m3 | mass density (308.15 K, x1 = 0.3497): 860.51 ± 0.72 kg/m3 | mass density (308.15 K, x1 = 0.4004): 860.07 ± 0.75 kg/m3 | mass density (308.15 K, x1 = 0.4501): 859.64 ± 0.78 kg/m3 | mass density (308.15 K, x1 = 0.4995): 859.23 ± 0.82 kg/m3 | mass density (308.15 K, x1 = 0.5505): 858.81 ± 0.85 kg/m3 | mass density (308.15 K, x1 = 0.5994): 858.42 ± 0.88 kg/m3 | mass density (308.15 K, x1 = 0.65): 858.02 ± 0.92 kg/m3 | mass density (308.15 K, x1 = 0.6987): 857.63 ± 0.96 kg/m3 | mass density (308.15 K, x1 = 0.7505): 857.25 ± 1 kg/m3 | mass density (308.15 K, x1 = 0.7986): 856.89 ± 1 kg/m3 | mass density (308.15 K, x1 = 0.8497): 856.54 ± 1.1 kg/m3 | mass density (308.15 K, x1 = 0.8999): 856.19 ± 1.1 kg/m3 | mass density (308.15 K, x1 = 0.9491): 855.87 ± 1.2 kg/m3 | mass density (308.15 K, x1 = 1): 855.51 ± 1.2 kg/m3 | surface tension liquid-gas (313.15 K, x1 = 0.0506): 27.18 ± 0.31 mN/m | surface tension liquid-gas (313.15 K, x1 = 0.1002): 26.67 ± 0.31 mN/m | surface tension liquid-gas (313.15 K, x1 = 0.1499): 26.15 ± 0.31 mN/m | surface tension liquid-gas (313.15 K, x1 = 0.2001): 25.7 ± 0.31 mN/m | surface tension liquid-gas (313.15 K, x1 = 0.2505): 25.28 ± 0.31 mN/m | surface tension liquid-gas (313.15 K, x1 = 0.3001): 24.91 ± 0.31 mN/m | surface tension liquid-gas (313.15 K, x1 = 0.3502): 24.59 ± 0.31 mN/m | surface tension liquid-gas (313.15 K, x1 = 0.3995): 24.26 ± 0.31 mN/m | surface tension liquid-gas (313.15 K, x1 = 0.4501): 23.95 ± 0.31 mN/m | surface tension liquid-gas (313.15 K, x1 = 0.5001): 23.62 ± 0.31 mN/m | surface tension liquid-gas (313.15 K, x1 = 0.5503): 23.36 ± 0.31 mN/m | surface tension liquid-gas (313.15 K, x1 = 0.6007): 23.08 ± 0.31 mN/m | surface tension liquid-gas (313.15 K, x1 = 0.6492): 22.9 ± 0.31 mN/m | surface tension liquid-gas (313.15 K, x1 = 0.6997): 22.65 ± 0.31 mN/m | surface tension liquid-gas (313.15 K, x1 = 0.75): 22.46 ± 0.32 mN/m | surface tension liquid-gas (313.15 K, x1 = 0.801): 22.2 ± 0.32 mN/m | surface tension liquid-gas (313.15 K, x1 = 0.848): 22.09 ± 0.32 mN/m | surface tension liquid-gas (313.15 K, x1 = 0.8998): 21.89 ± 0.32 mN/m | surface tension liquid-gas (313.15 K, x1 = 0.9498): 21.77 ± 0.32 mN/m | surface tension liquid-gas (313.15 K, x1 = 1): 21.64 ± 0.33 mN/m | mass density (313.15 K, x1 = 0.0506): 859.06 ± 0.58 kg/m3 | mass density (313.15 K, x1 = 0.1002): 858.55 ± 0.6 kg/m3 | mass density (313.15 K, x1 = 0.1499): 858.03 ± 0.63 kg/m3 | mass density (313.15 K, x1 = 0.2001): 857.52 ± 0.65 kg/m3 | mass density (313.15 K, x1 = 0.2505): 857 ± 0.68 kg/m3 | mass density (313.15 K, x1 = 0.3001): 856.51 ± 0.7 kg/m3 | mass density (313.15 K, x1 = 0.3502): 856.01 ± 0.73 kg/m3 | mass density (313.15 K, x1 = 0.3995): 855.53 ± 0.76 kg/m3 | mass density (313.15 K, x1 = 0.4501): 855.03 ± 0.79 kg/m3 | mass density (313.15 K, x1 = 0.5001): 854.56 ± 0.82 kg/m3 | mass density (313.15 K, x1 = 0.5503): 854.08 ± 0.86 kg/m3 | mass density (313.15 K, x1 = 0.6007): 853.61 ± 0.89 kg/m3 | mass density (313.15 K, x1 = 0.6492): 853.16 ± 0.93 kg/m3 | mass density (313.15 K, x1 = 0.6997): 852.71 ± 0.96 kg/m3 | mass density (313.15 K, x1 = 0.75): 852.27 ± 1 kg/m3 | mass density (313.15 K, x1 = 0.801): 851.82 ± 1 kg/m3 | mass density (313.15 K, x1 = 0.848): 851.43 ± 1.1 kg/m3 | mass density (313.15 K, x1 = 0.8998): 851.01 ± 1.1 kg/m3 | mass density (313.15 K, x1 = 0.9498): 850.6 ± 1.2 kg/m3 | mass density (313.15 K, x1 = 1): 850.16 ± 1.2 kg/m3
